{
  "source": "patent US20050255568A1",
  "about": "“Methods and compositions for amino acid production” (priority 2003, published 2005)",
  "key": {"[1]": {"target": "T1, O-Acetylhomoserine sulfhydrylase (MetY) (Corynebacterium glutamicum, UniProt Q79VI4)", "T1 sequence (Q79VI4 1-437)": "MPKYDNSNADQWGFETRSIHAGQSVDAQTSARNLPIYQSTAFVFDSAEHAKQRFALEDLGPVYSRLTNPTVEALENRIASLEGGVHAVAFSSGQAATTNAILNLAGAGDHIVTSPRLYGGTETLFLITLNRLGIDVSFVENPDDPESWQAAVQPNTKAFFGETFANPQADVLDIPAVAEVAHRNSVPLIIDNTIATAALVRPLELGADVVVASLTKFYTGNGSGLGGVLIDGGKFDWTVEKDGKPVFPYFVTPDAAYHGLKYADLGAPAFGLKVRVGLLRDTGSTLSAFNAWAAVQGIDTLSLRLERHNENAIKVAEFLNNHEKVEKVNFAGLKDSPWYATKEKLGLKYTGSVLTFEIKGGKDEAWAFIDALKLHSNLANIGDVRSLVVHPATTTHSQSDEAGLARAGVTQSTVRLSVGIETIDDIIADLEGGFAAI", "details": "cited from earlier work"}, "C. glutamicum MetA": {"target": "T2, C. glutamicum MetA (Corynebacterium glutamicum, UniProt O68640)", "T2 construct": "crude protein extracts derived from C. glutamicum strains MA-442 and MA-449 which contain both endogenous and episomal C. glutamicum MetA and MetY genes; expressed in transfected cells; host or cells: C. glutamicum MA-442 (MA-428 derivative of ATCC 13032) carrying episomal plasmid MB-4135 (lacIQ-trcRBS, C. glutamicum metA-RBS-metY, both wild type); crude extract", "T2 sequence (O68640 1-377)": "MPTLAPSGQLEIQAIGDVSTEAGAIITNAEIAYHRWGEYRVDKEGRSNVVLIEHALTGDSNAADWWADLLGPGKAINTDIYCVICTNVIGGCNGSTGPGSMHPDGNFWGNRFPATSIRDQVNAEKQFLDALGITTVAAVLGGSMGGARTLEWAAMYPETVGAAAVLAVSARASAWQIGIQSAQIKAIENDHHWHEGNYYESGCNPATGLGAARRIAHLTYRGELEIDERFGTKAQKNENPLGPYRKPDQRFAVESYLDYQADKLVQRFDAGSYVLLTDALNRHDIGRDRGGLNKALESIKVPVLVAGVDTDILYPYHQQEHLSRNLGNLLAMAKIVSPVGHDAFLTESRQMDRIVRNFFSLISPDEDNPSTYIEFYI", "format": "biochemical", "method": "MetA activity in C. glutamicum expressing endogenous and episomal metA genes was determined. MetA activity was assayed in crude protein extracts using a protocol described by Kredich and Tomkins (J. Biol. Chem.241(21):4955-4965, 1966). […] Briefly, 1 μg of protein extract was added to a microtiter plate. Reaction mix (250 μl; 100 mM tris-HCl pH 7.5, 2mM 5,5′-Dithiobis(2-nitrobenzoic acid) (DTN), 2 mM sodium EDTA, 2 mM acetyl CoA, 2 mM homoserine) was added to each well of the microtiter plate. In the course of the reactions, MetA activity liberates CoA from acetyl-CoA. A disulfide interchange occurs between the CoA and DTN to produce thionitrobenzoic acid. The production of thionitrobenzoic acid is followed spectrophotometrically. Absorbance at 412 nm was measured every 5 minutes over a period of 30 minutes. A well without protein extract was included as a control. […] Inhibitors were added directly to the reaction mix before it was added to the protein extract. […] Experiments were performed in the presence and absence of IPTG that induces expression of the plasmid borne MetA and MetY genes."}},
  "data": [
    {"smiles": "CC(=O)OC[C@H](N)C(=O)O", "note": "[O-acetylserine]", "values": [
      {"measurement": "MetY enzyme activity (in words)", "setting": "[1]", "value": "inhibited"}
    ]},
    {"smiles": "C[S+](CC[C@H](N)C(=O)[O-])C[C@H]1O[C@@H](n2cnc3c(N)ncnc32)[C@H](O)[C@@H]1O", "note": "(stereo partly drawn) [S-AM, S-adenosyl methionine]", "values": [
      {"measurement": "MetA activity of MA-442 extracts in the presence of S-AM", "setting": "C. glutamicum MetA; 0.2 mM S-AM", "value": "reduced"}
    ]},
    {"smiles": "N[C@@H](CCO)C(=O)O", "note": "[homoserine]", "values": [
      {"measurement": "MetY enzyme activity (in words)", "setting": "[1]", "value": "inhibited"}
    ]},
    {"smiles": "CSCC[C@H](N)C(=O)O", "note": "[methionine]", "values": [
      {"measurement": "reduction in MetY enzyme activity", "setting": "[1]; 0.5 mM methionine, combined allosteric regulation and repression", "value": 99, "unit": "%"},
      {"measurement": "MetY enzyme activity (in words)", "setting": "[1]", "value": "inhibited"},
      {"measurement": "MetA activity of MA-442 extracts in the presence of methionine", "setting": "C. glutamicum MetA; 5 mM methionine", "value": "reduced"}
    ]}
  ]
}
